Experiments:
[1] = tested on: thrombin generation in pooled normal plasma; experiment: Calibrated Automated Thrombogram thrombin generation assay in pooled normal plasma; assay type: biochemical, human; conditions: for procoagulant effect in normal plasma: no anticoagulant, cyclodextrin 100 μM unless otherwise indicated, 1 pM TF; for procoagulant activity (overview): pooled normal plasma with and without the addition of anticoagulants; for lag time / peak thrombin: normal plasma, versus absence of cyclodextrin
Procedure: (§1) FIGS. 3-8, 12, 14-19 and 22-27: Pooled normal plasma was spiked with cyclodextrins (100 μM, unless otherwise indicated) and anticoagulants. The concentrations of the anticoagulants were 100 ng/ml for dabigatran (A), 100 ng/ml for rivaroxaban (B), 60 ng/ml for apixaban (C), 60 ng/ml for edoxaban (D). The plasmas were subjected to thrombin generation analysis as described in the Materials and Methods section with 1 pM tissue factor (TF) as initiator of coagulation.
(§2) The Calibrated Automated Thrombogram® assays the generation of thrombin in clotting plasma using a microtiter plate reading fluorometer (Fluoroskan Ascent, ThermoLab systems, Helsinki, Finland) and Thrombinoscope® software (Thrombinoscope BV, Maastricht, The Netherlands). The assay was carried out as described by Hemker et al. (Pathofysiol. IIaemost. Thromb. 2003, 33, 4-15), and the Thrombinoscope® manual. Coagulation was triggered by recalcification in the presence of 1 or 5 pM recombinant human tissue factor (Innovin®, Siemens, Marburg, Germany), 4 μM phospholipids, and 417 μM fluorogenic substrate Z-Gly-Gly-Arg-AMC (Bachem, Bubendorf, Switzerland). Fluorescence was monitored using the Fluoroskan Ascent fluorometer (ThermoLabsystems, Helsinki, Finland), and the lag time, peak thrombin, velocity index and area under the curve (ETP) were calculated using the Thrombinoscope® software (Thrombinoscope BV).
Thrombin generation analyses were performed in pooled normal plasma with and without the addition of anticoagulants.

[2] = tested on: thrombin generation in pooled normal plasma spiked with anticoagulants; experiment: Thrombin generation assay in pooled normal plasma spiked with anticoagulants; assay type: biochemical, human; conditions: for effect on the anticoagulant effect of apixaban: apixaban 60 ng/ml; for effect on the anticoagulant effect of apixaban / effect on the anticoagulant effect of dabigatran / effect on the anticoagulant effect of edoxaban / effect on the anticoagulant effect of rivaroxaban: cyclodextrin 100 μM, 1 pM TF; for effect on the anticoagulant effect of dabigatran: dabigatran 100 ng/ml; for effect on the anticoagulant effect of edoxaban: edoxaban 60 ng/ml; for effect on the anticoagulant effect of rivaroxaban: rivaroxaban 100 ng/ml
Procedure: as §1
FIG. 9: Pooled normal plasma was spiked with OKL-1111 (100 μM, unless otherwise indicated (A)) and anticoagulants (B-E). The concentrations of the anticoagulants were 100 ng/ml for dabigatran (B), 100 ng/ml for rivaroxaban (C), 60 ng/ml for apixaban (D), 60 ng/ml for edoxaban (E). The plasmas were subjected to thrombin generation analysis as described in the Materials and Methods section with 1 pM tissue factor (TF) as initiator of coagulation.
FIG. 10: Pooled normal plasma was spiked with OKL-1111 (100 μM) and anticoagulants (A-F). The concentrations of the anticoagulants were 2 μg/ml for fondaparinux (A), 0.4 U/ml for nadroparin (B), 0.1 U/ml for tinzaparin (C), 0.03 U/ml for unfractionated heparin (UFH) (D), 0.5 U/ml for hirudin (E) and 10 μg/ml for bivalirudin (F). The plasmas were subjected to thrombin generation analysis as described in the Materials and Methods section with 1 pM tissue factor (TF) as initiator of coagulation.
as §2

`O=C(O)CCSCC1OC2OC3C(CO)OC(OC4C(CO)OC(OC5C(CO)OC(OC6C(CO)OC(OC7C(CO)OC(OC8C(CO)OC(OC1C(O)C2O)C(O)C8O)C(O)C7O)C(O)C6O)C(O)C5O)C(O)C4O)C(O)C3O` (centres unmarked) [OKL-1100, reference compound] was tested, and the “procoagulant effect in normal plasma” value [1] was “did not show procoagulant activity”, the “procoagulant activity (overview)” value [1] was “No” and the “procoagulant effect in plasma containing anticoagulants (not specified / NOACs)” value (shortened to “procoagulant effect … (not specified / NOACs)”) [2] was “did not show procoagulant activity”.
With `O=C(O)CCSCC1OC2OC3C(CSCCC(=O)O)OC(OC4C(CSCCC(=O)O)OC(OC5C(CSCCC(=O)O)OC(OC6C(CSCCC(=O)O)OC(OC7C(CSCCC(=O)O)OC(OC8C(CSCCC(=O)O)OC(OC1C(O)C2O)C(O)C8O)C(O)C7O)C(O)C6O)C(O)C5O)C(O)C4O)C(O)C3O` (centres unmarked) [OKL-1101, reference compound] the “procoagulant effect in normal plasma” value [1] was “did not show procoagulant activity”, the “procoagulant activity (overview)” value [1] was “No” and the “procoagulant effect … (not specified / NOACs)” value [2] was “did not show procoagulant activity”.
`O=C(O)CCSCC1OC2OC3C(CO)OC(OC4C(CO)OC(OC5C(CO)OC(OC6C(CO)OC(OC7C(CO)OC(OC8C(CO)OC(OC9C(CO)OC(OC1C(O)C2O)C(O)C9O)C(O)C8O)C(O)C7O)C(O)C6O)C(O)C5O)C(O)C4O)C(O)C3O` (centres unmarked) [OKL-1102, reference compound] was tested, and the “procoagulant effect in normal plasma” value [1] was “did not show procoagulant activity”, the “procoagulant activity (overview)” value [1] was “No” and the “procoagulant effect … (not specified / NOACs)” value [2] was “did not show procoagulant activity”.
With `O=C(O)CCSCC1OC2OC3C(CSCCC(=O)O)OC(OC4C(CSCCC(=O)O)OC(OC5C(CSCCC(=O)O)OC(OC6C(CSCCC(=O)O)OC(OC7C(CSCCC(=O)O)OC(OC8C(CSCCC(=O)O)OC(OC9C(CSCCC(=O)O)OC(OC1C(O)C2O)C(O)C9O)C(O)C8O)C(O)C7O)C(O)C6O)C(O)C5O)C(O)C4O)C(O)C3O` (centres unmarked) [OKL-1103, reference compound] the “procoagulant effect in normal plasma” value [1] was “did not show procoagulant activity”, the “procoagulant activity (overview)” value [1] was “No” and the “procoagulant effect … (not specified / NOACs)” value [2] was “did not show procoagulant activity”.
In the case of `O=C(O)CCCSCC1OC2OC3C(CSCCCC(=O)O)OC(OC4C(CSCCCC(=O)O)OC(OC5C(CSCCCC(=O)O)OC(OC6C(CSCCCC(=O)O)OC(OC7C(CSCCCC(=O)O)OC(OC8C(CSCCCC(=O)O)OC(OC1C(O)C2O)C(O)C8O)C(O)C7O)C(O)C6O)C(O)C5O)C(O)C4O)C(O)C3O` (centres unmarked) [OKL-1105], the “procoagulant effect in normal plasma” value [1] is reported as “significant procoagulant effect”, the “effect on the anticoagulant effect of apixaban” value (“effect … of apixaban” for short) [2] is reported as “procoagulant effects were observed” and the “effect on the anticoagulant effect of dabigatran” value (“effect … of dabigatran” for short) [2] is reported as “procoagulant effects were observed”. The “effect on the anticoagulant effect of edoxaban” value (shortened to “effect … of edoxaban”) [2] was “procoagulant effects were observed” and the “effect on the anticoagulant effect of rivaroxaban” value (from here on “effect … of rivaroxaban”) [2] was “procoagulant effects were observed”.
For `O=C(O)CCCSCC1OC2OC3C(CO)OC(OC4C(CO)OC(OC5C(CO)OC(OC6C(CO)OC(OC7C(CO)OC(OC8C(CO)OC(OC9C(CO)OC(OC1C(O)C2O)C(O)C9O)C(O)C8O)C(O)C7O)C(O)C6O)C(O)C5O)C(O)C4O)C(O)C3O` (centres unmarked) [OKL-1106], the “procoagulant effect in normal plasma” value [1] was “procoagulant effect”, the “effect … of apixaban” value [2] was “less pronounced” and the “effect … of dabigatran” value [2] was “significantly antagonized”. The “effect … of edoxaban” value [2] was “less pronounced” and the “effect … of rivaroxaban” value [2] was “significantly antagonized”.
For `O=C(O)CCCSCC1OC2OC3C(CSCCCC(=O)O)OC(OC4C(CSCCCC(=O)O)OC(OC5C(CSCCCC(=O)O)OC(OC6C(CSCCCC(=O)O)OC(OC7C(CSCCCC(=O)O)OC(OC8C(CSCCCC(=O)O)OC(OC9C(CSCCCC(=O)O)OC(OC1C(O)C2O)C(O)C9O)C(O)C8O)C(O)C7O)C(O)C6O)C(O)C5O)C(O)C4O)C(O)C3O` (centres unmarked) [OKL-1107], the “procoagulant effect in normal plasma” value [1] was “strong procoagulant effects”, the lag time [1] was “considerably shorter” and the peak thrombin [1] was “largely increased”. For the same compound, the “effect … of apixaban” value [2] was “completely restored or even higher than in the non-anticoagulated plasma”, the “effect … of dabigatran” value [2] was “completely restored or even higher than in the non-anticoagulated plasma” and the “effect … of edoxaban” value [2] was “completely restored or even higher than in the non-anticoagulated plasma”. The “effect … of rivaroxaban” value [2] was “completely restored or even higher than in the non-anticoagulated plasma”.
For `O=C(O)CCCCCSCC1OC2OC3C(CO)OC(OC4C(CO)OC(OC5C(CO)OC(OC6C(CO)OC(OC7C(CO)OC(OC8C(CO)OC(OC1C(O)C2O)C(O)C8O)C(O)C7O)C(O)C6O)C(O)C5O)C(O)C4O)C(O)C3O` (centres unmarked) [OKL-1108], the “procoagulant effect in normal plasma” value [1] was “substantial procoagulant effect”, the “effect … of apixaban” value [2] was “antagonized” and the “effect … of dabigatran” value [2] was “antagonized”. For the same compound, the “effect … of edoxaban” value [2] was “antagonized” and the “effect … of rivaroxaban” value [2] was “antagonized”.
For `O=C(O)CCCCCSCC1OC2OC3C(CSCCCCCC(=O)O)OC(OC4C(CSCCCCCC(=O)O)OC(OC5C(CSCCCCCC(=O)O)OC(OC6C(CSCCCCCC(=O)O)OC(OC7C(CSCCCCCC(=O)O)OC(OC8C(CSCCCCCC(=O)O)OC(OC1C(O)C2O)C(O)C8O)C(O)C7O)C(O)C6O)C(O)C5O)C(O)C4O)C(O)C3O` (centres unmarked) [OKL-1109], the “procoagulant effect in normal plasma” value [1] was “small effects”, the “effect … of apixaban” value [2] was “marginal or no effects” and the “effect … of dabigatran” value [2] was “marginal or no effects”. The “effect … of edoxaban” value [2] was “marginal or no effects” and the “effect … of rivaroxaban” value [2] was “marginal or no effects”.
In the case of `O=C(O)CCCCCSCC1OC2OC3C(CO)OC(OC4C(CO)OC(OC5C(CO)OC(OC6C(CO)OC(OC7C(CO)OC(OC8C(CO)OC(OC9C(CO)OC(OC1C(O)C2O)C(O)C9O)C(O)C8O)C(O)C7O)C(O)C6O)C(O)C5O)C(O)C4O)C(O)C3O` (centres unmarked) [OKL-1110], the “procoagulant effect in normal plasma” value [1] is reported as “very potent procoagulant effect”, the “effect … of apixaban” value [2] is reported as “fully counteracted” and the “effect … of dabigatran” value [2] is reported as “strongly antagonized”. The “effect … of edoxaban” value [2] was “fully counteracted” and the “effect … of rivaroxaban” value [2] was “fully counteracted”.
In the case of `OCCCSCC1OC2OC3C(CSCCCO)OC(OC4C(CSCCCO)OC(OC5C(CSCCCO)OC(OC6C(CSCCCO)OC(OC7C(CSCCCO)OC(OC8C(CSCCCO)OC(OC9C(CSCCCO)OC(OC1C(O)C2O)C(O)C9O)C(O)C8O)C(O)C7O)C(O)C6O)C(O)C5O)C(O)C4O)C(O)C3O` (centres unmarked) [OKL-1146], the “procoagulant effect in normal plasma” value [1] is reported as “very strong procoagulant effects”, the lag time [1] is reported as “considerably shorter” and the peak thrombin [1] is reported as “largely increased”. For the same compound, the “effect … of apixaban” value [2] was “restoration of thrombin generation to levels far above that of non-anticoagulated plasma”, the “effect … of dabigatran” value [2] was “restoration of thrombin generation to levels far above that of non-anticoagulated plasma” and the “effect … of edoxaban” value [2] was “restoration of thrombin generation to levels far above that of non-anticoagulated plasma”. For the same compound, the “effect … of rivaroxaban” value [2] was “restoration of thrombin generation to levels far above that of non-anticoagulated plasma”.
With `O=C(O)CCSCC1OC2OC3C(CSCCC(=O)O)OC(OC4C(CSCCC(=O)O)OC(OC5C(CSCCC(=O)O)OC(OC6C(CSCCC(=O)O)OC(OC7C(CSCCC(=O)O)OC(OC8C(CSCCC(=O)O)OC(OC9C(CSCCC(=O)O)OC(OC1C(O)C2O)C(O)C9O)C(O)C8O)C(O)C7O)C(O)C6O)C(O)C5O)C(O)C4O)C(O)C3O` (centres unmarked) [OKL-1170, reference compound] the “procoagulant effect in normal plasma” value [1] was “did not show procoagulant activity”, the “procoagulant activity (overview)” value [1] was “No” and the “procoagulant effect … (not specified / NOACs)” value [2] was “did not show procoagulant activity”.
For `O=C(O)CCCCSCC1OC2OC3C(CSCCCCC(=O)O)OC(OC4C(CSCCCCC(=O)O)OC(OC5C(CSCCCCC(=O)O)OC(OC6C(CSCCCCC(=O)O)OC(OC7C(CSCCCCC(=O)O)OC(OC8C(CSCCCCC(=O)O)OC(OC1C(O)C2O)C(O)C8O)C(O)C7O)C(O)C6O)C(O)C5O)C(O)C4O)C(O)C3O` (centres unmarked) [OKL-1178], the “procoagulant effect in normal plasma” value [1] was “procoagulant activity”.
`O=C(O)CCCCCCSCC1OC2OC3C(CSCCCCCCC(=O)O)OC(OC4C(CSCCCCCCC(=O)O)OC(OC5C(CSCCCCCCC(=O)O)OC(OC6C(CSCCCCCCC(=O)O)OC(OC7C(CSCCCCCCC(=O)O)OC(OC8C(CSCCCCCCC(=O)O)OC(OC1C(O)C2O)C(O)C8O)C(O)C7O)C(O)C6O)C(O)C5O)C(O)C4O)C(O)C3O` (centres unmarked) [OKL-1179] was tested, and the “procoagulant effect in normal plasma” value [1] was “procoagulant activity”.
